Key:
[1] = tested on: doxorubicin-induced heart failure; experiment: Cardiac fibrosis (picrosirius red, left-ventricular interstitial fibrosis); assay type: in vivo, rat; details: doxorubicin rats; SUL-150 via food pellets, prophylaxis or therapeutic group
Procedure: The SUL-150 solution was sprayed homogeneously over standard food pellets (1.25 kg). […] Food pellets were freshly prepared weekly. With the approximation of 200 mg·kg^-1 SUL-150 in the food pellets and a daily dietary intake of 25 gram for a 350 gram rat, daily dosing of SUL-150 approximates 5 mg·day^-1. Male outbred Wistar rats of 250-300 grams (10-12 weeks old) were kept on a 12 h light/dark cycle and received a standard diet with distilled water ad libitum. Thirty rats were administered with doxorubicin (2 mg·kg^-1) weekly via intraperitoneal injection for 9 consecutive weeks and were left either untreated (standard chow diet, 10 rats), or received a diet supplemented with SUL-150 as prophylaxis (prior to the 1st doxorubicin administration, 10 rats) or therapy (starting after the 6th doxorubicin administration, 10 rats). Sham control rats (8 rats) were administered with saline weekly via intraperitoneal injection for 9 consecutive weeks and received a standard diet. All rats were subjected to cardiac function assessment 12 weeks after the first doxorubicin administration. […] Samples were imaged on a NanoZoomer S60 Digital slide scanner (Hammamatsu Photonics) and left-ventricular interstitial fibrosis (i.e. non-perivascular fibrosis) was quantified using Aperio ImageScope (Leica Biosystems, Nussloch, Germany).

[2] = tested on: doxorubicin-induced heart failure; experiment: Cardiac mitochondrial (mtDNA) copy number; assay type: in vivo, rat; details: doxorubicin rats; administration of SUL-150
Procedure: SUL-150 (250 mg) was dissolved in 100% EtOH (1.02 ml) and further diluted in distilled water (68.7 ml) to obtain a clear 10 mM solution. The SUL-150 solution was sprayed homogeneously over standard food pellets (1.25 kg). Food pellets were air-dried overnight. Food pellets were freshly prepared weekly. With the approximation of 200 mg·kg^−1 SUL-150 in the food pellets and a daily dietary intake of 25 gram for a 350 gram rat, daily dosing of SUL-150 approximates 5 mg·day^−1.
Male outbred Wistar rats of 250-300 grams (10-12 weeks old) were kept on a 12 h light/dark cycle and received a standard diet with distilled water ad libitum. Thirty rats were administered with doxorubicin (2 mg·kg^−1) weekly via intraperitoneal injection for 9 consecutive weeks and were left either untreated (standard chow diet, 10 rats), or received a diet supplemented with SUL-150 as prophylaxis (prior to the 1st doxorubicin administration, 10 rats) or therapy (starting after the 6th doxorubicin administration, 10 rats). Sham control rats (8 rats) were administered with saline weekly via intraperitoneal injection for 9 consecutive weeks and received a standard diet. […]
Cardiac tissue samples were homogenized in lysis buffer (100 mM NaCl, 10 mM EDTA, 0.5% SDS in 20 mM Tris-HCl, pH 7.4) containing 50 U·ml^−1 RNase I and 100 U·ml^−1 proteinase K (both ThermoFisher, Walthham, MA). […] MtDNA copy number was calculated as: […]

Question: How did the “Fibrogenic response in the left ventricle interstitium (collagen deposition), FIG. 4” value [1] turn out when `Cc1c(C)c2c(c(C)c1O)CC[C@](C)(C(=O)N1CCNCC1)O2` [SUL-150, (R)-(6-hydroxy-2,5,7,8-tetramethylchroman-2-yl)(piperazin-1-yl)methanone] was run?
Answer: blocks this fibrogenic reaction

Question: And the “Doxorubicin-induced reduction of cardiac mtDNA copy number, FIG. 6B” value [2]?
Answer: precluded

Reference: patent US20230330060A1, “COMPOUNDS FOR TREATMENT OF HEART FAILURE” (Sulfateq B.V., priority 2020, published 2023)
